Consider 15 compounds from patent US20220002279A1, “NOVEL IMIDAZOLE DERIVATIVE” (priority 2018, published 2022).

≈ marks a conversion by molar mass, not a printed value.

Holding throughout (experiment): Antimicrobial activity, MIC by broth microdilution
Common to all, as to assay type: cell-based
A general note: In broth dilution the organism is exposed to a series of concentrations in liquid medium.

Experiment [1] concerns Klebsiella pneumoniae strain ATCC13883. Particulars: ATCC13883, cation-adjusted Mueller-Hinton broth, about 5×10^5 CFU/mL, 35° C., about 18 hours, read-out: MIC Klebsiella pneumoniae ATCC13883. The text has this: (§1) Test Example 4 Evaluation of the Antimicrobial Activity
(§2) For minimum inhibitory concentration (MIC) measurement, the following broth microdilution method was applied as adapted from the standard procedure recommended by the CLSI (Clinical and Laboratory Standards Institute).
(§3) The bacteria used were Pseudomonas aeruginosa strain ATCC27853, Escherichia coli strain ATCC25922, and Klebsiella pneumoniae strain ATCC13883. After culture overnight on a heart infusion agar medium, the cells of a test bacterium were scraped off, and a bacterial solution suspended to have a turbidity of level 0.5 on the McFarland scale was diluted and used as an inoculum solution. The inoculum solution was inoculated in a cation-adjusted Mueller-Hinton broth medium containing a test compound so that the final inoculation concentration was about 5×10^5 CFU/mL, and cultured at 35° C. for about 18 hours. A minimum drug concentration at which no cell growth was visible to the naked eye was designated as MIC. […] In the table, ND represents the case where suppression of the cell growth in a drug concentration-dependent manner was not observed (Not Determined), and NT represents that no test was conducted (Not Tested).

Experiment [2] deals with Escherichia coli strain ATCC25922. Particulars: ATCC25922, 18 h, cation-adjusted Mueller-Hinton broth, about 5×10^5 CFU/mL, 35° C., about 18 hours, read-out: MIC Escherichia coli ATCC25922.
From the text: as §1, §2, §3

Experiment [3] concerns Pseudomonas aeruginosa strain ATCC27853. Particulars: ATCC27853, 18 h, cation-adjusted Mueller-Hinton broth, about 5×10^5 CFU/mL, 35° C., about 18 hours, read-out: MIC Pseudomonas aeruginosa ATCC27853.
From the text: as §1, §2, §3

The term MIC denotes the smallest concentration in the dilution series that meets the test's criterion for growth inhibition. Regarding `C[C@H](O)c1nccn1[C@H](CN)c1cc(-c2ccc(C#C[C@H]3C[C@H](NC=O)C3)cc2)on1` [Compound 106, N-{trans-3-[(4-{3-[(1R)-2-amino-1-(2-[(1S)-1-hydroxyethyl]-1H-imidazol-1-yl}ethyl]-1,2-oxazol-5-yl}phenyl)ethynyl]cyclobutyl}formamide], the MIC in experiment [1] was 4 µg/mL (≈ 9.54 µM); in experiment [2] it was 2 µg/mL (≈ 4.77 µM); in experiment [3], 8 µg/mL (≈ 19.1 µM).
In the same order, the values of `C[C@H](O)c1nccn1[C@H](CN)c1cc(-c2ccc(C#C[C@@H]3[C@H]4CN(CCCC(=O)O)C[C@@H]34)cc2)on1` [Compound 113, 4-{(1R,5S,6s)-6-[(4-{3-[(1R)-2-amino-1-{2-[(1S)-1-hydroxyethyl]-1H-imidazol-1-yl}ethyl]-1,2-oxazol-5-yl}phenyl)ethynyl]-3-azabicyclo[3.1.0]hexan-3-yl}butanoic acid] are 16 µg/mL (≈ 32.7 µM), 4 µg/mL (≈ 8.17 µM) and 4 µg/mL (≈ 8.17 µM).
In the same order, the values of `CC(=O)N[C@H]1C[C@H](C#Cc2ccc(-c3cc([C@@H](CN)n4ccnc4[C@H](C)O)no3)cc2)C1` [Compound 115, N-{trans-3-[(4-{3-[(1R)-2-amino-1-{2-[(1S)-1-hydroxyethyl]-1H-imidazol-1-yl}ethyl]-1,2-oxazol-5-yl}phenyl)ethynyl]cyclobutyl} acetamide] are 8 µg/mL (≈ 18.5 µM), 4 µg/mL (≈ 9.23 µM) and 16 µg/mL (≈ 36.9 µM).
For the compound `C[C@H](O)c1nccn1[C@H](CN)c1cc(-c2ccc(C#C[C@@H]3[C@H]4CN(C=O)C[C@@H]34)cc2)on1` [Compound 117, (1R,5S,6s)-6-[(4-{3-[(1R)-2-amino-1-{2-[(1S)-1-hydroxyethyl]-1H-imidazol-1-yl}ethyl]-1,2-oxazol-5-yl}phenyl)ethynyl]-3-azabicyclo[3.1.0]hexane-3-carbaldehyde], the results for the MIC in experiment [1], in experiment [2] and in experiment [3] were 2 µg/mL (≈ 4.64 µM), 1 µg/mL (≈ 2.32 µM) and 8 µg/mL (≈ 18.5 µM), respectively.
In the same order, the values of `COC(=O)N1C[C@@H]2[C@@H](C#Cc3ccc(-c4cc([C@@H](CN)n5ccnc5[C@H](C)O)no4)cc3)[C@@H]2C1` [Compound 118, methyl (1R,5S,6s)-6-[(4-{3-[(1R)-2-amino-1-{2-[(1S)-1-hydroxyethyl]-1H-imidazol-1-yl}ethyl]-1,2-oxazol-5-yl}phenyl)ethynyl]-3-azabicyclo[3.1.0]hexane-3-carboxylate] are 0.5 µg/mL (≈ 1.08 µM), 0.25 µg/mL (≈ 0.542 µM) and 4 µg/mL (≈ 8.67 µM).
On to `CC(O)CN1C[C@@H]2[C@@H](C#Cc3ccc(-c4cc([C@@H](CN)n5ccnc5[C@H](C)O)no4)cc3)[C@@H]2C1` (stereo partly drawn) [Compound 120, 1-{(1R,5S,6s)-6-[(4-{3-[(1R)-2-amino-1-{2-[(1S)-1-hydroxyethyl]-1H-imidazol-1-yl}ethyl]-1,2-oxazol-5-yl}phenyl)ethynyl]-3-azabicyclo[3.1.0]hexan-3-yl}propan-2-ol], for which the MIC in experiment [1] was determined as 2 µg/mL (≈ 4.33 µM); in experiment [2], 1 µg/mL (≈ 2.17 µM); in experiment [3] it was 2 µg/mL (≈ 4.33 µM).
Take `C[C@H](O)c1nccn1[C@H](CN)c1cc(-c2ccc(C#C[C@H]3C[C@H](N(C)C=O)C3)cc2)on1` [Compound 123, N-{trans-3-[(4-{3-[(1R)-2-amino-1-{2-[(1S)-1-hydroxyethyl]-1H-imidazol-1-yl}ethyl]-1,2-oxazol-5-yl}phenyl)ethynyl]cyclobutyl}-N-methylformamide]: the results for the minimum inhibitory concentration (MIC) in experiment [1], in experiment [2] and in experiment [3] were 2 µg/mL (≈ 4.61 µM), 4 µg/mL (≈ 9.23 µM) and 32 µg/mL (≈ 73.8 µM), respectively.
The like results for `C[C@H](O)c1nccn1[C@H](CN)c1cc(-c2ccc(C#C[C@@H]3[C@H]4CN(C(=O)C(N)=O)C[C@@H]34)cc2)on1` [Compound 124, 2-{(1R,5S,6s)-6-[(4-{3-[(1R)-2-amino-1-{2-[(1S)-1-hydroxyethyl]-1H-imidazol-1-yl}ethyl]-1,2-oxazol-5-yl}phenyl)ethynyl]-3-azabicyclo[3.1.0]hexan-3-yl}-2-oxoacetamide] were, in that order, 4 µg/mL (≈ 8.43 µM), 2 µg/mL (≈ 4.21 µM) and 2 µg/mL (≈ 4.21 µM).
In the same order, the values of `C[C@H](O)c1nccn1[C@H](CN)c1cc(-c2ccc(C#C[C@H]3C[C@@H](O)C3)cc2)on1` [Compound 125, cis-3-[(4-{3-[(1R)-2-amino-1-{2-[(1S)-1-hydroxyethyl]-1H-imidazol-1-yl}ethyl]-1,2-oxazol-5-yl}phenyl)ethynyl]cyclobutan-1-ol] are 2 µg/mL (≈ 5.1 µM), 2 µg/mL (≈ 5.1 µM) and 8 µg/mL (≈ 20.4 µM).
In the case of `C[C@H](O)c1nccn1[C@H](CN)c1cc(-c2ccc(C#C[C@H]3CC3C(=O)O)cc2)on1` (stereo partly drawn) [Compound 126, trans-2-[(4-{3-[(1R)-2-amino-1-{2-[(1S)-1-hydroxyethyl]-1H-imidazol-1-yl}ethyl]-1,2-oxazol-5-yl}phenyl)ethynyl]cyclopropane-1-carboxylate], the MIC in experiment [1] was 64 µg/mL (≈ 157 µM); in experiment [2], 16 µg/mL (≈ 39.4 µM); in experiment [3], 16 µg/mL (≈ 39.4 µM).
With `C[C@H](O)c1nccn1[C@H](CN)c1cc(-c2ccc(C#CC3CC(NC4CC4)C3)cc2)on1` (stereo partly drawn) [Compound 129, (1S)-1-(1-{(1R)-2-amino-1-[5-(4-{[3-(cyclopropylamino)cyclobutyl]ethynyl}phenyl)-1,2-oxazol-3-yl]ethyl}-1H-imidazol-2-yl)ethan-1-ol], the MIC stood at 2 µg/mL (≈ 4.63 µM) in experiment [1], 1 µg/mL (≈ 2.32 µM) in experiment [2] and 8 µg/mL (≈ 18.5 µM) in experiment [3].
`C[C@H](O)c1nccn1[C@H](CN)c1cc(-c2ccc(C#CC3CC3(CO)CO)cc2)on1` (stereo partly drawn) [Compound 131, (1S)-1-(1-{(1R)-2-amino-1-[5-(4-{[2,2-bis(hydroxymethyl)cyclopropyl]ethynyl}phenyl)-1,2-oxazol-3-yl]ethyl}-1H-imidazol-2-yl)ethan-1-ol]: the MIC in experiment [1] is 32 µg/mL (≈ 75.7 µM); in experiment [2] it was 8 µg/mL (≈ 18.9 µM); in experiment [3] it was 16 µg/mL (≈ 37.9 µM).
Regarding `C[C@H](O)c1nccn1[C@H](CN)c1cc(-c2ccc(C#C[C@@H]3[C@H]4CN(CCCO)C[C@@H]34)cc2)on1` [Compound 132, 3-{(1R,5S,6s)-6-[(4-{3-[(1R)-2-amino-1-{2-[(1S)-1-hydroxyethyl]-1H-imidazol-1-yl}ethyl]-1,2-oxazol-5-yl}phenyl)ethynyl]-3-azabicyclo[3.1.0]hexan-3-yl) propan-1-ol], the values for the MIC in experiment [1], in experiment [2] and in experiment [3] were 8 µg/mL (≈ 17.3 µM), 8 µg/mL (≈ 17.3 µM) and 2 µg/mL (≈ 4.33 µM), respectively.
For the compound `C[C@H](O)c1nccn1[C@H](CN)c1cc(-c2ccc(C#C[C@H]3C[C@H](NC4COC4)C3)cc2)on1` [Compound 133, (1S)-1-{1-[(1R)-2-amino-1-{5-[4-({trans-3-[(oxetan-3-yl)amino]cyclobutyl}ethynyl)phenyl]-1,2-oxazol-3-yl}ethyl]-1H-imidazol-2-yl} ethan-1-ol], the MIC in experiment [1] worked out at 4 µg/mL (≈ 8.94 µM); in experiment [2], 1 µg/mL (≈ 2.23 µM); in experiment [3], 8 µg/mL (≈ 17.9 µM).
For the compound `C[C@H](O)c1nccn1Cc1cc(-c2ccc(C#C[C@H]3C[C@H](NC4COC4)C3)cc2)on1` [Compound 135, (S)-1-(1-((5-(4-(((1r,3S)-3-(oxetan-3-ylamino)cyclobutyl)ethynyl)phenyl)isoxazol-3-yl)methyl)-1H-imidazol-2-yl)ethanol], the MIC in experiment [1] was found to be 2 µg/mL (≈ 4.78 µM); in experiment [2], 0.5 µg/mL (≈ 1.19 µM); in experiment [3] it was 32 µg/mL (≈ 76.5 µM).
